# Results reported in US20150087627A1, “COMBINATION OF KINASE INHIBITORS AND USES THEREOF” (Intellikine LLC, priority 2011, published 2015).
# Where “and” joins values, the source holds several entries; their conditions need not be identical. Equal values may be shown once.
# Experiments:
# [1] = system: MDA-MB-361 human breast cancer xenografts; test: Antitumor activity and tumor regrowth, MDA-MB-361 xenografts (Example 42); type: in vivo, Mus musculus; settings: for MTV on Day 65: n = 4; for % TGI on Day 65: based on the control group on Day 65; for TGI: Day 29
# Procedure: (room temperature), shielded from light. The test article Compound A was prepared in 5% NMP+95% PEG400 every 5 to 7 days and stored at approximately 25° C. (room temperature), shielded from light. The control article used in this study was 5% NMP+95% PEG400. Compounds were completely dissolved in NMP by sonication, followed by the addition of an appropriate volume of PEG400, and the final solution was vortexed and sonicated to ensure thorough mixing.
# Low-passage MDA-MB-361 cells were grown in Eagle's Minimal Essential Medium (EMEM) media supplemented with 20% fetal bovine serum (FBS) and 1× penicillin/streptomycin (Invitrogen, Carlsbad, Calif., USA) until approximately 80% confluency was reached. Before injection, the cells were detached with GIBCO® trypsin (Invitrogen), washed twice with phosphate-buffered saline (PBS), and resuspended in Roswell Park Memorial Institute (RPMI) media (Invitrogen) without supplements. Cells were resuspended to a final concentration of 5×10^7 cells/mL in RPMI media without supplements. MDA-MB-361 cells (5.0×10^6 cells/animal in 0.1-mL injection volume) were implanted SC into the flank of female athymic nu/nu nude mice. The animals used in this study are described in the following table.
# Female 5 to 6-week old female (athymic nu/nu) nude mice were inoculated SC in the flank with 5.0×10^6 MDA-MB-361 cells. Tumor growth was monitored with vernier calipers. The MTV was calculated using the formula V=W^2×L÷2. When the MTV reached approximately 235 mm^3, the animals were randomized into 4 treatment groups (n=8/group). Treatment started on Day 0. […] Tumor growth and body weight were measured twice weekly. Percent TGI and body weight change were calculated on Day 29. Four mice from each group were euthanized on Day 29 and tissues were harvested for pharmacodynamic studies. The remaining mice continued on study until Day 65, and tumor size and body weight in these mice were measured every 9 to 11 days.
# Antitumor activity was determined by calculating the percent TGI using Equation 1: Percent TGI)=(MTV of the control group−MTV of a treated group) MTV of the control group×100
# Tumor growth delay was determined by calculating the time until MTV in a given treatment group reached 1000 mm^3 versus the time until MTV in the control group reached 1000 mm^3.
# The differences in trends of tumor growth over time between pairs of treatment groups were assessed using linear mixed-effects regression models. These models account for the fact that each animal was measured at multiple time points. A separate model was fit for each comparison, and the AUC for each treatment group was calculated using the predicted values from the model. The percent decrease in AUC (ΔAUC) relative to the reference group was then calculated.
# A statistical analysis was performed with a linear mixed-effects regression model that takes into account the differences in trends of tumor growth between control and treated samples. Differences among mice were treated as random effects, and a compound symmetry covariance structure was used to model the variability between repeated tumor measurements for each mouse. Treatment comparisons were performed by using the fitted curves from the model to calculate the ΔAUC. The significance of the ΔAUC was assessed using permutation testing. All p values less than 0.05 were considered significant.
# A combination score calculation was used to address the question of whether the effects of the combination treatments were more than additive (synergistic), additive, or subadditive (antagonistic) relative to the individual treatments. […] All p values less than 0.05 were considered significant.
# [2] = system: PTEN mutant cells; test: Western blot of Akt, S6 and 4EBP phosphorylation in PTEN mutant cells (FIG. 6B); type: cell-based
# [3] = system: 786-0 cells, a human kidney carcinoma cell line having a non-mutated PI3Kα; test: In vivo efficacy in 786-0 kidney carcinoma xenograft; design: species or system mice; settings: FIG. 6
# Procedure: Compound A was administered orally at 60 and 120 mg/kg and compound A was administered orally as a solution at 1 mg/kg (QD). For example, a PI3Kα inhibitor is compared to a kinase inhibitor with specificity for mTor. […] FIG. 6C also provides biochemical potency data for the two compared inhibitors. PI3 Kinase α, β, γ and δ activity was assayed using the PI3 Kinase HTRF® assay kit (Millipore Corporation). Purified recombinant PI3Kα, PI3Kβ, PI3Kγ and PI3Kδ were obtained from Millipore Corporation. […] Emission ratios were converted into percent inhibitions and imported into GraphPad Prism software. […] IC50 values were determined using a nonlinear regression model available in GraphPad Prism 5.
# [4] = system: KRAS/PIK3CA colon model; test: KRAS/PIK3CA colon model (FIG. 19); type: in vivo
smiles,measurement,setting,value
Nc1nc2cc(-c3ccc4ncc(C(=O)N5CCOCC5)n4c3)ccc2o1 [Compound A],MTV on Day 65,"[1]; 60 mg/kg PO QD until Day 29, regrowth",500 mm^3 and 511.4 ± 568^ mm^3
same,% TGI on Day 65,[1]; 60 mg/kg PO QD until Day 29,69.5%
same,TGI,[1]; 60.0 mg/kg PO QD,77.4%
same,"inhibition of Akt, S6, and 4EBP phosphorylation",[2],not
same,anti-tumor activity in 786-0 model,"[3]; orally at 60 and 120 mg/kg, compared to MDA derived tumors",decreased activity
same,activity in a KRAS/PIK3CA colon model,[4],not effective
CC(C)n1nc(-c2ccc3oc(N)nc3c2)c2c(N)ncnc21 [Compound B],TGI,[1]; 0.3 mg/kg PO QD for 30 days,71.1%
same,MTV on Day 65,"[1]; 0.3 mg/kg PO QD until Day 29, regrowth",649.6 ± 457.7 mm^3
same,% TGI on Day 65,[1]; 0.3 mg/kg PO QD until Day 29,61.3%
same,MTV on Day 29,"[1]; 0.3 mg/kg PO QD, n = 8",210.9 mm^3 and 210.9 ± 103.3 mm^3
same,"inhibition of Akt, S6, and 4EBP phosphorylation",[2],selective inhibition
same,inhibition of kinase activity and tumor growth in 786-0 model,[3]; orally as a solution at 1 mg/kg (QD),effective
same,activity in a KRAS/PIK3CA colon model,[4],not effective
